Values joined by “and” are separate entries in the source; they are usually repeats but may differ in a detail not shown here. Identical values can stand only once.
Legend:
[1] = tested on: 16HBE14o- cells; assay: Short-circuit current in 16HBE14o- cells (Test Example 2); format: cell-based, Human; conditions: 1 μM, 1% DMSO
Method: 16HBE14o- cells, a Human airway cell line derived from a healthy individual, which contain ClC-2 and the Cystic Fibrosis Transmembrane Regulator, Cl channel (CFTR); and CFBE41o- cells, a Human airway cell line derived from cystic fibrosis patients, which contain functional form of ClC-2 and defective form of CFTR (ΔF508 CFTR) were used. Both cells were cultured in MEM supplemented with 10% FBS (Hyclone), […] 1-glutamine and penicillin/streptomycin in flasks coated with fibronectin/collagen/BSA. When desired, the cells were plated on 0.3 cm^2 collagen-coated permeable filters (Biocoat). After 24 hrs, the apical medium was removed so that the cells were grown in air-water interface. While they were grown in air-water interface, the basolateral side of the cells was fed with the medium and the medium was changed every other day. The cells were allowed to grow to confluence.
Short-circuit current measurements were used to evaluate Cl transport in polarized, confluent cultures of the cells grown in air-water interface. A plexiglass chamber for short-circuit current measurements in confluent cell monolayers grown on the 0.3 cm^2 permeable support filters was used (World Precision Instruments, Sarasota, Fla.). Electrical measurements were made with a 7402C voltage clamp device (Bioengineering Department, Iowa University). The temperature was held constant at 37° C. by circulating heated water through the water jacket of the chamber. The output of the amplifier was plotted on an analog chart recorder. Changes in short-circuit current (Δlsc) after addition of test compounds were normalized to filter area (0.3 cm^2) and reported as ΔIsc/cm^2.
Short-circuit current measurements in the 16HBE14o- and CFBE41o- cells were carried out as described by Lofling et al. (Am J Physiol, 277(4 Pt 1):L700-8, 1999, the cited reference is herein incorporated by reference). […] Both solutions were bubbled with CO2/O2 (5%/95%), which also served to help mix the solutions. In all cases, the basolateral membrane was permeabilized with 200 μg/ml nystatin. […]

[2] = molecular target: T1, recombinant human ClC-2 Chloride Channels (Homo sapiens, UniProt P51788); assay: Whole cell patch clamp, ClC-2 transfected HEK cells, current increase (Test Example 4); format: cell-based; conditions: 100 nM, change from control
T1 construct: His; T7; expressed in transfected cells; host or cells: HEK-293 (ATCC), pcDNA3.1, G-418 selected
T1 sequence (P51788 1-898): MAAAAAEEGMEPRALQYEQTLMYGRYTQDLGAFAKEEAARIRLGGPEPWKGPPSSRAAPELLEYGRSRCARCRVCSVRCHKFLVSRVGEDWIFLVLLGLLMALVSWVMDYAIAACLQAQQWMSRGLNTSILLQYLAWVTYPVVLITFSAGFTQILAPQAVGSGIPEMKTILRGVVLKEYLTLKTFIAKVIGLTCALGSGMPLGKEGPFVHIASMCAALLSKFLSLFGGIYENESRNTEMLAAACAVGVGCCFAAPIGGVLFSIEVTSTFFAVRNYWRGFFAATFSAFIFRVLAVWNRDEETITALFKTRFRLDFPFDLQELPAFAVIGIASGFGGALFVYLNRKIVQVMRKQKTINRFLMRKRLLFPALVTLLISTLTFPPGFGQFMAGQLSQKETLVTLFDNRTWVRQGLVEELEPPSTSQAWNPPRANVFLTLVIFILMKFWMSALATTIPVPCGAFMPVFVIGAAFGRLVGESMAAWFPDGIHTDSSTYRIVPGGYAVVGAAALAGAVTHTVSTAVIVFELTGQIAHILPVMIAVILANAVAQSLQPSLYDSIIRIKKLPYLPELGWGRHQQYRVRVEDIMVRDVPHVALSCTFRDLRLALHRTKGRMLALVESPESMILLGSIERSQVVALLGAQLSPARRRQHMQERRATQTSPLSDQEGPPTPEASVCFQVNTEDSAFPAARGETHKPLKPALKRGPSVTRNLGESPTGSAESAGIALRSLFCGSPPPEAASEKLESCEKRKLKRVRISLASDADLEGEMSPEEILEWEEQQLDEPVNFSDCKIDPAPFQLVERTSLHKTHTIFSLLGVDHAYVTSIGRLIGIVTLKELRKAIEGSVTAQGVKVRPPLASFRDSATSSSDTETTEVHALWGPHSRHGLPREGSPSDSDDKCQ
Method: According to the same manner as described in Example 1, whole cell patch clamp measurements were carried out.
Test compounds were used at a final concentration of 100 nM.

[3] = molecular target: T2, recombinant hClC-2 chloride channel (Homo sapiens, UniProt P51788); assay: Whole cell patch clamp, HEK cells transfected with hClC-2 (Test Example 1); format: cell-based; conditions: for Effect on Cl currents in HEK cells transfected with hClC-2 (in words): 1 μM; for Cl channel activity: 1 μM in 1% DMSO, HEK cells transfected with hClC-2
T2 construct: His; T7; expressed in transfected cells; host or cells: HEK-293 (ATCC), pcDNA3.1, G-418 selected
T2 sequence (P51788 1-898): T1 sequence (P51788 1-898)
Text: Whole cell patch clamp method was used to assess the effect of compound 1 (13,14-dihydro-15-keto-16,16-difluoro-PGE1) and compound 2 (13,14-dihydro-15-keto-16,16-difluoro-18 (S)-methyl-PGE1) on recombinant hClC-2 chloride channel. In this example, effects of the respective compounds on Human Epithelial Kidney (HEK) cells transfected with human ClC-2 (hClC-2) were examined, and the results were compared with those on non-transfected HEK cells.
ClC-2 transfected human epithelial kidney (HEK) cells were prepared and used. HEK-293 cells obtained from American Type Culture Collection (ATCC; Manassas, Va.) were transfected with His- and T7-tagged human ClC-2 cDNA in the mammalian expression vector pcDNA3.1 (GIBCO/Invitrogen) using Lipofectamine (GIBCO/Invitrogen) for 5 h at 37° C. in serum-free medium. Cells were then resuspended in the serum-containing medium and cultured in the presence of 300 μg/ml G-418 (GIBCO/Invitrogen). The surviving cells were then expanded, tested to confirm expression of Cl- current and ClC-2 mRNA, and the cells expressing ClC-2 mRNA were frozen to store. Upon studies, the stored cells were thawed and maintained at 37° C. in 5%/95% CO2/O2 in MEM (GIBCO/Invitrogen) supplemented with 5% inactivated horse serum, 0.1 mM nonessential amino acids, 2 mM L-glutamine, 1 mM sodium pyruvate, 100 units/ml penicillin, and 100 μg/ml streptomycin sulfate.
In the whole cell patch clamp measurements, currents were elicited by voltage clamp pulses (1500 ms duration) between +40 mV and −140 mV, in 20 mV increments, from the beginning holding potential of −30 mV. Currents were measured 50-100 ms after start of the pulse. The external solution was normal Tyrode solution containing 135 mM NaCl, 1.8 mM CaCl2, 1 mM MgCl2, 5.4 mM KCl, 10 mM glucose, and 10 mM HEPES (pH 7.35). The pipette solution was 130 mM CsCl, 1 mM MgCl2, 5 mM EGTA, and 10 mM HEPES (pH 7.35); also present in the pipette was 1 mM ATP—Mg^2+ (pH 7.4).
Pipettes were prepared from borosilicate glass and pulled by a two stage Narashige puller to give 1-1.5 MΩ resistance. Data were acquired with Axopatch CV-4 headstage with Digidata 1200 digitizer and Axopatch 1D amplifier. Data were analyzed using pClamp 6.04 (Axon Instruments, Foster City, Calif.), Lotus 123 (IBM) and Origin (Microcal) software.
Compound 1 and compound 2 were used at a final concentration of 1 μM in 1% DMSO.

Row | Activation of ClC-2 channels ΔpA/pF [2] [pA/pF] | Effect on Cl currents in HEK cells transfected with hClC-2 (in words) [3] | Cl channel activity [3] [nS/pF] | Structure (SMILES) | Short-Circuit Current (change) [1] | Short-Circuit Current (change) ([1]; listed as compound 2) [μA/cm^2]
1 | 39.8 | activated | 1.820 ± 0.114 | CCCCC(F)(F)[C@@]1(O)CC[C@H]2[C@@H](CC(=O)[C@@H]2CCCCCCC(=O)O)O1 [Compound 1, (−)-7-[(2R,4aR,5R,7aR)-2-(1,1-difluoropentyl)-2-hydroxy-6-oxoperhydrocyclopenta[b]pyran-5-yl]heptanoic acid] | 9.56±0.095 μA/cm^2 and 9.56 ± 0.95 μA/cm^2 | 
2 | 22.6 | activated | 0.558 ± 0.100 | CC[C@H](C)CC(F)(F)C(=O)CC[C@H]1[C@H](O)CC(=O)[C@@H]1CCCCCCC(=O)O [Compound 2, 13,14-dihydro-15-keto-16,16-difluoro-18(S)-Methyl-PGE1] | 11.6±1.3 μA/cm^2 | 11.6 ± 1.3

— patent US7253295B2, “Chloride channel opener” (Sucampo AG, priority 2001, dated 2007)
